The text below walks through data of patent US20200155650A1, “Combination treatment of NAFLD and NASH” (CymaBay Therapeutics, Inc., priority 2018, published 2020).

Assay [1] concerns Alms1 mutant (fozlfoz) mice. The settings on record: 10 mg/Kg by gavage for 8 weeks, cited from earlier work.
Assay [2] has as its system subjects with liver biopsy-proven NASH. Kind of assay: Example 3, clinical, single agent seladelpar in biopsy-proven NASH. As to conditions: 10, 20, and 50 mg/day for 52 weeks. Format: in vivo, human. Here is the method: One hundred seventy-five subjects with liver biopsy-proven NASH are treated with doses of 10, 20, and 50 mg/day, or placebo (2:2:2:1 randomization) for 52 weeks. Subjects are permitted their usual other medications (e.g. antidiabetic medications such as metformin or […]) but not glitazones, PPAR agonists, OCA, or similar medications. […] The primary efficacy outcome is the change in baseline in liver fat content at 12 weeks, as measured by magnetic resonance imaging-derived proton density fat fraction (MRI-PDFF). Other outcome measures include histological improvement in NASH and fibrosis, assessed by comparing liver biopsy samples at baseline and at 52 weeks after the start of dosing; MRI-PDFF at 26 and 52 weeks; and measurements of total cholesterol, HDL-C, LDL-C, VLDL-C, TGs, apoB, and liver transaminases. The subjects also maintain health diaries, which are reviewed at each visit.

The next assay has as its target T1, PPARα (Homo sapiens, UniProt Q07869).
T1 sequence (Q07869 1-468): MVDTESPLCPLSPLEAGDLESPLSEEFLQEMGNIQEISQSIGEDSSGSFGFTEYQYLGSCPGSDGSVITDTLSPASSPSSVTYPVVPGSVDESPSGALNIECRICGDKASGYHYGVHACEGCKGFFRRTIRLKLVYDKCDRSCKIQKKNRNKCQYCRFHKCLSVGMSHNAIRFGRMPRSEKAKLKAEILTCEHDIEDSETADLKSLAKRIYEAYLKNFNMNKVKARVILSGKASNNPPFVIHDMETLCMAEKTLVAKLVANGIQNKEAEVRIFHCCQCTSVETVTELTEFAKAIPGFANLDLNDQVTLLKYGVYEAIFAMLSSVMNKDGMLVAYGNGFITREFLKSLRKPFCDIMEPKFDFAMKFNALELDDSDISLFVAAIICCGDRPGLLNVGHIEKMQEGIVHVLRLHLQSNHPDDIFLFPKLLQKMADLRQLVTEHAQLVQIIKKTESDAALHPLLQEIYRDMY
As to conditions: cited from earlier work.

`CCO[C@H](COc1ccc(C(F)(F)F)cc1)CSc1ccc(OCC(=O)O)c(C)c1` [Seladelpar, (R)-2-(4-((2-ethoxy-3-(4-(trifluoromethyl)phenoxy)propyl)-sulfanyl)-2-methylphenoxy)acetic acid]: the “mean nonalcoholic fatty liver disease activity score (NAS)” value in assay [1] (vehicle 6.9) was 3.13. For the same compound, the “reduction of serum alanine aminotransferase” value in assay [1] (vehicle 300-600 U/L) is on record as 50%. In addition, the “hyperglycemia, hyperinsulinemia, and glucose disposal” value in assay [1] is reported as “normalized”. Moreover, the “improvement in disease (MRI-PDFF, liver biopsy, NAS score)” value in assay [2] was “dose-related improvement in their disease”.

As usually defined, the EC50 is the concentration needed to bring the measured effect to its halfway point. With `CSc1ccc(C(=O)/C=C/c2cc(C)c(OC(C)(C)C(=O)O)c(C)c2)cc1` [elafibranor], on PPARα, the EC50 was 6 nM.
